Laboratory results taken from paper PMC6100082, “Pyridine-Ureas as Potential Anticancer Agents: Synthesis and In Vitro Biological Evaluation” (Molecules : A Journal of Synthetic Chemistry and Natural …, 2018).

Legend:
IGROV1 = experiment: NCI one-dose SRB assay (Ovarian Cancer); type: cell-based, human
Protocol: (§1) The structures of all the newly prepared pyridine-ureas 8a–n were submitted to the National Cancer Institute (NCI) Developmental Therapeutic Program. Eight compounds 8b, 8d, 8e, 8i, 8j and 8l–n were selected to be examined for their in vitro growth inhibitory activity. The anticancer assays were carried out according to the protocol of the Drug Evaluation Branch, NCI, Bethesda. The selected pyridine-ureas were tested at one dose primary anticancer assay against a panel of approximately 58 cancer lines (concentration 10^−5 M). The tested human cancer cell lines emerged from nine different cancer subtypes: leukemia, colon, melanoma, ovarian, lung, CNS, renal, breast and prostate cancers. The sulforhodamine B (SRB) protein assay was adopted to estimate the cell viability and growth. The results were reported as mean-graph of the percentage growth of the treated cells, and presented as percentage growth inhibition (GI%) caused by the test compounds (Table 2).
(§2) The anticancer assays were performed in accordance with the protocol of the Drug Evaluation Branch, NCI, Bethesda. A 48 h drug exposure protocol was used and sulforhodamine B (SRB) protein assay was applied to estimate the cell viability and growth, as reported earlier.

OVCAR-8 = experiment: NCI one-dose SRB assay (Ovarian Cancer); type: cell-based, human
Protocol: as §1, §2

OVCAR-4 = experiment: NCI one-dose SRB assay (Ovarian Cancer); type: cell-based, human
Protocol: as §1, §2

SK-OV-3 = experiment: NCI one-dose SRB assay (Ovarian Cancer); type: cell-based, human
Protocol: as §1, §2

NCI/ADR-RES = experiment: NCI one-dose SRB assay (Ovarian Cancer); type: cell-based, human
Protocol: as §1, §2

OVCAR-3 = experiment: NCI one-dose SRB assay (Ovarian Cancer); type: cell-based, human
Protocol: as §1, §2

OVCAR-5 = experiment: NCI one-dose SRB assay (Ovarian Cancer); type: cell-based, human
Protocol: as §1, §2

SNB-19 = experiment: NCI one-dose SRB assay (CNS Cancer); type: cell-based, human
Protocol: as §1, §2

SNB-75 = experiment: NCI one-dose SRB assay (CNS Cancer); type: cell-based, human
Protocol: as §1, §2

SF-295 = experiment: NCI one-dose SRB assay (CNS Cancer); type: cell-based, human
Protocol: as §1, §2

PC-3 = experiment: NCI one-dose SRB assay (Prostate); type: cell-based, human
Protocol: as §1, §2

DU-145 = experiment: NCI one-dose SRB assay (Prostate); type: cell-based, human
Protocol: as §1, §2

NCI 58 cell line panel = experiment: NCI one-dose SRB assay, whole panel / subpanel summary; type: cell-based, human
Protocol: as §1, §2

A498 = experiment: NCI one-dose SRB assay (Renal Cancer); type: cell-based, human
Protocol: as §1, §2

SN12C = experiment: NCI one-dose SRB assay (Renal Cancer); type: cell-based, human
Protocol: as §1, §2

UO-31 = experiment: NCI one-dose SRB assay (Renal Cancer); type: cell-based, human
Protocol: as §1, §2

RXF 393 = experiment: NCI one-dose SRB assay (Renal Cancer); type: cell-based, human
Protocol: as §1, §2

786-0 = experiment: NCI one-dose SRB assay (Renal Cancer); type: cell-based, human
Protocol: as §1, §2

TK-10 = experiment: NCI one-dose SRB assay (Renal Cancer); type: cell-based, human
Protocol: as §1, §2

MCF7 = experiment: NCI one-dose SRB assay (Breast Cancer); type: cell-based, human
Protocol: as §1, §2

MDA-MB-468 = experiment: NCI one-dose SRB assay (Breast Cancer); type: cell-based, human
Protocol: as §1, §2

HS 578T = experiment: NCI one-dose SRB assay (Breast Cancer); type: cell-based, human
Protocol: as §1, §2

BT-549 = experiment: NCI one-dose SRB assay (Breast Cancer); type: cell-based, human
Protocol: as §1, §2

T-47D = experiment: NCI one-dose SRB assay (Breast Cancer); type: cell-based, human
Protocol: as §1, §2

MDA-MB-231 = experiment: NCI one-dose SRB assay (Breast Cancer); type: cell-based, human
Protocol: as §1, §2

UACC-257 = experiment: NCI one-dose SRB assay (Melanoma); type: cell-based, human
Procedure, shortened: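 Percentage growth inhibition (GI%) was calculated from treated-cell growth measured by SRB protein assay following a 48 h exposure at 10^−5 M.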

[1] = Homo sapiens, 10 μM, read-out: Percentage growth inhibition (GI%)

With `COc1ccc(-c2ccc(NC(=O)Nc3cccc(C(F)(F)F)c3)c(C)n2)cc1OC` [Compound 8i, 1-(6-(3,4-Dimethoxyphenyl)-2-methylpyridin-3-yl)-3-(3-(trifluoromethyl)phenyl) Urea] the inhibition at 10 µM (IGROV1; Homo sapiens, IGROV-1, IGROV1, 10 μM, read-out: Percentage growth inhibition (GI%)) was less than 10%, the “Growth Percent” value (IGROV1; IGROV1, 1.00E-5 Molar) was 91.46% and the inhibition at 10 µM (OVCAR-8; Homo sapiens, OVCAR-8, 10 μM, read-out: Percentage growth inhibition (GI%)) was 19%. The “Growth Percent” value (OVCAR-8; OVCAR-8, 1.00E-5 Molar) was 81.32%, the inhibition at 10 µM (OVCAR-4; Homo sapiens, OVCAR-4, 10 μM, read-out: Percentage growth inhibition (GI%)) was 41% and the “Growth Percent” value (OVCAR-4; OVCAR-4, 1.00E-5 Molar) was 59.07%. For the same compound, the inhibition at 10 µM (SK-OV-3; Homo sapiens, SK-OV-3, 10 μM, read-out: Percentage growth inhibition (GI%)) was less than 10%, the “Growth Percent” value (SK-OV-3; SK-OV-3, 1.00E-5 Molar) was 101.37% and the “Growth Percent” value (NCI/ADR-RES; 1.00E-5 Molar) was 66.87%. For the same compound, the inhibition at 10 µM (NCI/ADR-RES; [1]) was 34%, the inhibition at 10 µM (OVCAR-3; Homo sapiens, OVCAR-3, 10 μM, read-out: Percentage growth inhibition (GI%)) was 31% and the “Growth Percent” value (OVCAR-3; OVCAR-3, 1.00E-5 Molar) was 69.16%. The inhibition at 10 µM (OVCAR-5; Homo sapiens, OVCAR-5, 10 μM, read-out: Percentage growth inhibition (GI%)) was less than 10%, the “Growth Percent” value (OVCAR-5; OVCAR-5, 1.00E-5 Molar) was 94.03% and the inhibition at 10 µM (SNB-19; Homo sapiens, SNB-19, 10 μM, read-out: Percentage growth inhibition (GI%)) was 22%. The “Growth Percent” value (SNB-19; SNB-19, 1.00E-5 Molar) was 78.84%, the inhibition at 10 µM (SNB-75; Homo sapiens, SNB-75, 10 μM, read-out: Percentage growth inhibition (GI%)) was 34% and the “Growth Percent” value (SNB-75; SNB-75, 1.00E-5 Molar) was 66.71%. The inhibition at 10 µM (SF-295; Homo sapiens, SF-295, 10 μM, read-out: Percentage growth inhibition (GI%)) was 35%, the “Growth Percent” value (SF-295; SF-295, 1.00E-5 Molar) was 65.28% and the inhibition at 10 µM (PC-3; Homo sapiens, PC-3, 10 μM, read-out: Percentage growth inhibition (GI%)) was 73%. The “Growth Percent” value (PC-3; PC-3, 1.00E-5 Molar) was 27.45%, the “Growth Percent” value (DU-145; DU-145, 1.00E-5 Molar) was 82.57% and the inhibition at 10 µM (DU-145; Homo sapiens, DU-145, 10 μM, read-out: Percentage growth inhibition (GI%)) was 18%. The inhibition at 10 µM (NCI 58 cell line panel; Homo sapiens, 10 μM, one dose, read-out: mean inhibition (mean % growth inhibition over NCI 58 cell line panel)) was 22 to 34%, the “Mean Growth Percent” value (NCI 58 cell line panel; One Dose Mean Graph, 1.00E-5 Molar) was 67.33% and the “Growth Percent” value (A498; A498, 1.00E-5 Molar) was 61.34%. The inhibition at 10 µM (A498; Homo sapiens, A498, 10 μM, read-out: Percentage growth inhibition (GI%)) was 39%, the “Growth Percent” value (SN12C; 1.00E-5 Molar) was 79.32% and the inhibition at 10 µM (SN12C; [1]) was 21%. The inhibition at 10 µM (UO-31; Homo sapiens, UO-31, 10 μM, read-out: Percentage growth inhibition (GI%)) was 26%, the “Growth Percent” value (UO-31; UO-31, 1.00E-5 Molar) was 74.95% and the inhibition at 10 µM (RXF 393; Homo sapiens, RXF 393, 10 μM, read-out: Percentage growth inhibition (GI%)) was 23%. For the same compound, the “Growth Percent” value (RXF 393; RXF 393, 1.00E-5 Molar) was 77.55%, the “Growth Percent” value (786-0; 786-0, 1.00E-5 Molar) was 69.08% and the inhibition at 10 µM (786-0; Homo sapiens, 786-0, 10 μM, read-out: Percentage growth inhibition (GI%)) was 31%. The inhibition at 10 µM (TK-10; Homo sapiens, TK-10, 10 μM, read-out: Percentage growth inhibition (GI%)) was 21%, the “Growth Percent” value (TK-10; TK-10, 1.00E-5 Molar) was 79.75% and the melting point was 235 to 237 °C. For the same compound, the inhibition at 10 µM (MCF7; Homo sapiens, MCF7, 10 μM, read-out: Percentage growth inhibition (GI%)) was 38%, the “Growth Percent” value (MCF7; MCF7, 1.00E-5 Molar) was 62.46% and the inhibition at 10 µM (MDA-MB-468; Homo sapiens, MDA-MB-468, 10 μM, read-out: Percentage growth inhibition (GI%)) was 51%. The “Growth Percent” value (MDA-MB-468; MDA-MB-468, 1.00E-5 Molar) was 49.56%, the “Growth Percent” value (HS 578T; 1.00E-5 Molar) was 74.54% and the inhibition at 10 µM (HS 578T; [1]) was 26%. For the same compound, the “Growth Percent” value (BT-549; BT-549, 1.00E-5 Molar) was 71.52%, the inhibition at 10 µM (BT-549; Homo sapiens, BT-549, 10 μM, read-out: Percentage growth inhibition (GI%)) was 29% and the “Growth Percent” value (T-47D; 1.00E-5 Molar) was 53.57%. The inhibition at 10 µM (T-47D; Homo sapiens, T47D, 10 μM, read-out: Percentage growth inhibition (GI%)) was 47%, the inhibition at 10 µM (MDA-MB-231; Homo sapiens, MDA-MB-231, 10 μM, read-out: Percentage growth inhibition (GI%)) was 31% and the “Growth Percent” value (MDA-MB-231; MDA-MB-231/ATCC, 1.00E-5 Molar) was 69.50%. For the same compound, the inhibition at 10 µM (UACC-257; Homo sapiens, UACC-257, 10 μM, read-out: Percentage growth inhibition (GI%)) was 19% and the “Growth Percent” value (UACC-257; UACC-257, 1.00E-5 Molar) was 81.62%.
